SMILES strings stand for the structures.

The target of this assay is T1, human CB2R (Homo sapiens, UniProt P34972).
T1 construct: host or cells: CHO cells
As to the kind of experiment: CB2R mediated modulation of cAMP synthesis. It is filed as cell-based. Particulars: CHO cells expressing human CB2R; decrease of forskolin induced cAMP; found 'through the use of the above described assays'. On the procedure:
B. CB2R Mediated Modulation of cAMP Synthesis:
CHO cells expressing human CB2R (Euroscreen) were plated at a density of 5000 cells per well in 384 well plates and incubated overnight at 37° C. After removing the media, the cells were treated with test compounds diluted in stimulation buffer containing 1 mM IBMX, 0.25% BSA and 10 uM Forskolin. The assay was incubated for 30 minutes at 37° C. Cells were lysed and the cAMP concentration was measured using DiscoverX-XS cAMP kit, following the manufacturer's protocol. In this setting, agonists will decrease forskolin induced production of cAMP while inverse agonists will further increase forskolin induced production of cAMP. EC50 of agonists were calculated as follows. The maximal amount of cAMP produced by forskolin compared to the level of cAMP inhibited by 1 uM CP55940 is defined as 100%. The EC50 value of each test compound was determined as the concentration at which 50% of the forskolin-stimulated cAMP synthesis was inhibited. Data was analyzed using a four-parameter logistic model. (Model 205 of XLfit 4.0).

T1 sequence (P34972 whole entry): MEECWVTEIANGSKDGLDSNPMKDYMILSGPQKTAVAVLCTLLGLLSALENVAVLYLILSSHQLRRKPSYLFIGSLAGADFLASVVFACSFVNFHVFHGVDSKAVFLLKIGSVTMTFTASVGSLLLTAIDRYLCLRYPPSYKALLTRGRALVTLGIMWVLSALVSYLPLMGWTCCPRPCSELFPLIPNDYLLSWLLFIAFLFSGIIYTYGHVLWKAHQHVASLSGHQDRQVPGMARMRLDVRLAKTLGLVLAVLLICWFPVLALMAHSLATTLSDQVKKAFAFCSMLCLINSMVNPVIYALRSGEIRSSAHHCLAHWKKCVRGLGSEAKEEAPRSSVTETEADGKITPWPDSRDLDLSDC

For `c1ccc(C2CN(Cc3ccc(-c4ccsc4)cc3)CCO2)cc1` (centres unmarked) [2-Phenyl-4-(4-thiophen-3-yl-benzyl)-morpholine], the agonistic activity result is on record as “agonistic activity”.

Turning to `FC(F)(F)c1ccccc1-c1ccc(CN2CCO[C@@H](c3ccccc3)C2)cn1` [(S)-2-Phenyl-4-[6-(2-trifluoromethyl-phenyl)-pyridin-3-ylmethyl]-morpholine], the agonistic activity entry is listed as “agonistic activity”.

On to `N#Cc1ccccc1-c1ccc(CN2CCOC(c3ccccc3)C2)cc1` (centres unmarked) [4′-(2-Phenyl-morpholin-4-ylmethyl)-biphenyl-2-carbonitrile], for which the agonistic activity entry was “agonistic activity”.

Turning to `FC(F)(F)c1ccccc1-c1ccc(CN2CCOCC2)cc1` [4-(2′-Trifluoromethyl-biphenyl-4-ylmethyl)-morpholine], the agonistic activity entry is reported as “agonistic activity”.

With `c1ccc(-c2ccc(CN3CCO[C@@H](c4ccccc4)C3)cn2)cc1` [Example 188, (S)-2-Phenyl-4-(6-phenyl-pyridin-3-ylmethyl)-morpholine], the agonistic activity result is listed as “agonistic activity”.

In the case of `Clc1ccccc1-c1ccc(CN2CCO[C@@H](c3ccccc3)C2)cc1` [Example 193, (S)-4-(2′-Chloro-biphenyl-4-ylmethyl)-2-phenyl-morpholine], the agonistic activity result is on record as “agonistic activity”.

For `c1ccc(C2CN(Cc3ccc(-c4ccccn4)cc3)CCO2)cc1` (centres unmarked) [2-Phenyl-4-(4-pyridin-2-yl-benzyl)-morpholine], the agonistic activity result is “agonistic activity”.

`O=C(c1ccccc1)N1CCN(Cc2ccc(-c3ccccc3C(F)(F)F)cc2)CC1Cc1ccccc1` (centres unmarked) [Phenyl-[2-benzyl-4-(2′-trifluoromethyl-biphenyl-4-ylmethyl)-piperazin-1-yl]-methanone]: the agonistic activity result was “agonistic activity”.

`N#Cc1ccccc1-c1ccc(CN2CCO[C@@H](c3ccccc3)C2)cc1` [Example 192, 4′-((S)-2-Phenyl-morpholin-4-ylmethyl)-biphenyl-2-carbonitrile]: the agonistic activity result is listed as “agonistic activity”.

Regarding `Clc1cccc(-c2ccc(CN3CCO[C@@H](c4ccccc4)C3)cc2)c1Cl` [Example 183, (S)-4-(2′,3′-Dichloro-biphenyl-4-ylmethyl)-2-phenyl-morpholine], the agonistic activity entry is listed as “agonistic activity”.

Take `Clc1cccc(-c2ccc(CN3CCO[C@@H](c4ccccc4)C3)cn2)c1` [Example 189, (S)-4-[6-(3-Chloro-phenyl)-pyridin-3-ylmethyl]-2-phenyl-morpholine]: the agonistic activity entry is reported as “agonistic activity”.

`FC(F)(F)c1ccccc1-c1ccc(CN2CCCC(c3ccccc3)C2)cc1` (centres unmarked) [3-Phenyl-1-(2′-trifluoromethyl-biphenyl-4-ylmethyl)-piperidine]: the agonistic activity result is reported as “agonistic activity”.

In the case of `Cc1ccc(Cl)c(-c2ccc(CN3CCOC(c4ccccc4)C3)cc2)c1` (centres unmarked) [4-(2′-Chloro-5′-methyl-biphenyl-4-ylmethyl)-2-phenyl-morpholine], the agonistic activity result is reported as “agonistic activity”.

In the case of `Clc1ccccc1-c1ccc(CN2CCOC(c3ccccc3)C2)cc1` (centres unmarked) [4-(2′-Chloro-biphenyl-4-ylmethyl)-2-phenyl-morpholine], the agonistic activity entry was “agonistic activity”.

Consider `Clc1sccc1-c1ccc(CN2CCO[C@@H](c3ccccc3)C2)cc1` [Example 191, (S)-4-[4-(2-Chloro-thiophen-3-yl)-benzyl]-2-phenyl-morpholine], for which the agonistic activity entry is “agonistic activity”.

On to `FC(F)(F)c1ccccc1-c1ccc(CN2CCNC(Cc3ccccc3)C2)cc1` (centres unmarked) [3-Benzyl-1-(2′-trifluoromethyl-biphenyl-4-ylmethyl)-piperazine], for which the agonistic activity result is given as “agonistic activity”.

For the compound `Clc1cccc(-c2ccc(CN3CCOC(c4ccccc4)C3)cc2)c1Cl` (centres unmarked) [4-(2′,3′-Dichloro-biphenyl-4-ylmethyl)-2-phenyl-morpholine], the agonistic activity entry is listed as “agonistic activity”.

In the case of `c1ccc(C[C@H]2CN(Cc3ccc(-c4ccccc4)nc3)CCN2)cc1` [Example 186, (S)-3-Benzyl-1-(6-phenyl-pyridin-3-ylmethyl)-piperazine], the agonistic activity result is recorded as “agonistic activity”.

Regarding `FC(F)(F)c1ccccc1-c1ccc(CN2CCOC(c3ccccc3)C2)cc1` (centres unmarked) [2-Phenyl-4-(2′-trifluoromethyl-biphenyl-4-ylmethyl)-morpholine], the agonistic activity result was “agonistic activity”.

Turning to `Clc1ccccc1-c1ccc(CN2CCCC(c3ccccc3)C2)cc1` (centres unmarked) [1-(2′-Chloro-biphenyl-4-ylmethyl)-3-phenyl-piperidine], the agonistic activity result is listed as “agonistic activity”.

On to `O=S(=O)(c1ccccc1)N1CCN(Cc2ccc(-c3ccccc3C(F)(F)F)cc2)CC1c1ccccc1` (centres unmarked) [1-Benzenesulfonyl-2-phenyl-4-(2′-trifluoromethyl-biphenyl-4-ylmethyl)-piperazine], for which the agonistic activity result is given as “agonistic activity”.

`Clc1sccc1-c1ccc(CN2CCOC(c3ccccc3)C2)cc1` (centres unmarked) [4-[4-(2-Chloro-thiophen-3-yl)-benzyl]-2-phenyl-morpholine]: the agonistic activity entry is reported as “agonistic activity”.

For the compound `CCOc1ccccc1-c1ccc(CN2CCOC(c3ccccc3)C2)cc1` (centres unmarked) [4-(2′-Ethoxy-biphenyl-4-ylmethyl)-2-phenyl-morpholine], the agonistic activity result was “agonistic activity”.

(Values after US7595397B2, “Compounds which modulate the CB2 receptor” (Boehringer Ingelheim International GmbH, priority 2005, dated 2009).)
